The values below come from patent US7531575B2, “Method of modulating cellular activity and agents useful for same” (Eberhard-Karls-Universität Tübingin, priority 2002, dated 2009).

What all share (format): cell-based, murine
One assay concerns iNOS mRNA. Kind of assay: iNOS mRNA Northern blot, LPS-stimulated N9 microglia. Conditions: N9 cells, LPS 10 μg/mL, TNL 300 μM pretreatment 1 hr. An excerpt: (§1) TNL was a generous gift of Kissei Pharmaceuticals, LPC (Escherichia coli, 0127:BS), phorbol 12-myristate 13-acetate (PMA) and dexamethasone (DEX) were obtained from Sigma, BAY 11-7082 (BAY), NF-κB SN50 inhibitory peptide (SN50), GF 109203X (GFX) and rottlerin (ROT) were purchased from Biomol. PD098059 (PD) was obtained from Calbiochem. Purified murine interferon-γ (IFN-γ) was purchased from Roche Diagnostics. N9 murine microglial cells were a kind gift from P. Ricciardi-Castagnoli (Righi, M. et al. 1989 supra). Cells were cultured in Dulbecco's modified Eagle's medium (DMEM) supplemented with 10% fetal calf serum (FCS), 2 mM glutamine, penicillin (100 unit/mL) and streptomycin (100 μg/mL) and maintained at 37° in an atmosphere of 5% CO2. Viability was assessed by crystal violet staining.
RNA was isolated using the RNeasy™ kit (Qiagen). Total RNA (10 μg) was separated on 1.2% agarose gels and blotted onto nylon membranes (Amersham). The filters were hybridized according to standard procedures with a ^32P-labeled murine cDNA probe for iNOS. For the generation of the iNOS probe, N9 cells were stimulated with IFN-γ (200 unit/mL) for 24 hr. […]

In another assay the test system is iNOS. Kind of assay: iNOS activity by Griess assay (nitrite formation), LPS-stimulated N9 microglia. The following applies: N9 cells, LPS 10 μg/mL, 48 hr, concentration series.
From the text: as §1
iNOS activity was assessed by the Griess assay (Platten, M., Wick, W., Wischhusen, J. and Weller, M. Br J Pharmacol 134(6):1279-1284, 2001). Briefly, conditioned supernatant was incubated with an equal volume of Griess reagent containing 1% sulphanilamide, 0.1% naphthylethylenediamine dihydrochloride and 2.5% H3PO4 (Green, L. C., Wagner, D. A., Glogowski, J., Skipper, P. I., Wishnok, J. S, and Tannenbaum, S. R. Anal. Biochem., 126:131-138, 1982) for 5 min. at room temperature. The absorbance was measured at 546 nm. NaNO2 diluted in DMEM served as a standard. To control for cell number, the cells were stained with crystal violet. iNOS activity is expressed as nitrite accumulated in 48 hr/10^5 cells.
Background: The Griess reaction detects nitrite, a stable product of nitric oxide.

For the next assay, the system named is ERK-2. Kind of assay: phospho-ERK-1/2 immunoblot, LPS-stimulated N9 microglia: ERK-2. The following applies: N9 cells, LPS 10 μg/mL 10 min.
From the text: as §1
(§2) For the preparation of whole cell lysates, the cells were lysed in 0.1 M Tris-HCl (pH 7.2) containing 0.1% NP40, 0.1 mM EDTA and 5 μg/mL phenylmethylsulphonyl fluoride. Twenty micrograms protein was separated by 10-12% SDS-PAGE and electroblotted on nitrocellulose membrane. Equal loading was controlled by Ponceau S staining. […]
(In general: Immunoblotting shows a protein as a band on a membrane.)

For a further assay, the system named is IκBα. As to the kind of experiment: phospho-IκBα immunoblot, IFN-γ-stimulated N9 microglia. Conditions: N9 cells, IFN-γ 200 u ml, tranilast 30-300 μM, 4 h preincubation. As for the experimental part: Tranilast was a generous gift of Kissei Pharmaceuticals (Nagano, Japan). Murine recombinant IFN-γ was purchased from Boehringer (Mannheim, Germany). Dexamethasone (DEX) was obtained from Sigma (Deisenhofen, Germany). N9 murine microglial cells were a kind gift from P. Ricciardi-Castagnoli (Milano, Italy) (Righi, M., Mori, L., De Libero, G., Sironi, M., Biondi, A., Mantovani, A., Donini, S. D. and Ricciardi-Castagnoli, P. Eur J Immunol 19(8):1443-1448, 1989). The cells were cultured in Dulbecco's modified Eagle's medium (DMEM) supplemented with 10% foetal calf serum (FCS), 2 mM glutamine and penicillin ([…])/streptomycin (100 μg ml), and maintained at 37° C. in an atmosphere of 5% CO2. Viability was assessed by crystal violet staining.
For the preparation of whole cell lysates, the cells were rinsed in phosphate-buffered saline (PBS), harvested, centrifuged at 1200×g, lysed in 0.1 M TRIS-HCl (pH 7.2) containing 0.1% NP40, 0.1 mM EDTA and 5 μg ml PMSF for 40 min on ice, and centrifuged at 10,000×g for 10 min. Protein concentration was determined using Biorad reagents with photometric analysis. Proteins (20 μg lane) were separated by 10-12% SDS-PAGE and electroblotted on nitrocellulose. qual protein loading was controlled by Ponceau S staining. […]

Another assay has as its system ERK-1. Kind of assay: phospho-ERK-1/2 immunoblot, LPS-stimulated N9 microglia: ERK-1. Conditions: N9 cells, LPS 10 μg/mL 10 min, TNL pre-incubation 1 hr.
From the text: as §1, §2

For the compound `COc1ccc(/C=C/C(=O)Nc2ccccc2C(=O)O)cc1OC` [tranilast, 2-[[3-(3,4-dimethoxyphenyl)-1-oxo-2-propenyl]amino]benzoic acid], the “LPS induction of iNOS mRNA” value is reported as “unaffected” with iNOS mRNA (4 and 8 hr); “no further increase” in the assay with iNOS mRNA (16 hr). Also, the “nitrite formation after LPS” value with iNOS is reported as “concentration-dependent decrease”. The “reduction of phospho-ERK-2 (densitometry)” value in the assay on ERK-2 (300 μM TNL) is on record as 80%. Besides, the “ERK-2 phosphorylation after LPS” value with ERK-2 (TNL pre-incubation 1 hr, concentration series) is listed as “concentration-dependent inhibition”. In addition, the “IκB phosphorylation in response to IFN-γ” value in the assay on IκBα is “concentration-dependent suppression”. Further, the “phospho-ERK-1 protein level after LPS” value in the assay with ERK-1 is on record as “remained unchanged”.
